13 compounds from the NIST ThermoML archive (doi:10.1016/j.fluid.2014.11.020) can be followed below.

A short description of the series: activity coefficient (dimensionless); of the first substance listed, at infinite dilution; xn = mol fraction of the nth substance listed. To be noted: Liquid, Chromatography, x1 = 0.

Numbers after ± are expanded uncertainties.

Take `CCc1ccccc1` [ethylbenzene] + CCCCCCCCn1cc[n+](COCCCOC[n+]2ccn(CCCCCCCC)c2C)c1C.O=S(=O)([N-]S(=O)(=O)C(F)(F)F)C(F)(F)F.O=S(=O)([N-]S(=O)(=O)C(F)(F)F)C(F)(F)F: the activity coefficient stood at 0.75 ± 0.05 (323.15 K), 0.73 ± 0.05 (333.15 K) and 0.74 ± 0.05 (343.15 K).

For `Cc1cccc(C)c1` [1,3-dimethylbenzene] + CCCOC[n+]1ccn(Cc2ccccc2)c1.F[B-](F)(F)F, the activity coefficient is, setting by setting: (323.15 K) 5.41 ± 0.37; (333.15 K) 4.91 ± 0.33; (343.15 K) 4.91 ± 0.33.

As for `CCO` [ethanol] + Cn1cc[n+](COCCCOC[n+]2ccn(C)c2)c1.O=S(=O)([N-]S(=O)(=O)C(F)(F)F)C(F)(F)F.O=S(=O)([N-]S(=O)(=O)C(F)(F)F)C(F)(F)F, the activity coefficient by setting is: (323.15 K) 1.06 ± 0.07; (333.15 K) 0.96 ± 0.06; (343.15 K) 0.89 ± 0.06.

`CCC(C)CC` [3-methylpentane] + CCCOC[n+]1ccc(N(C)C)cc1.O=S(=O)([N-]S(=O)(=O)C(F)(F)F)C(F)(F)F: the activity coefficient by setting is: (323.15 K) 9.61 ± 0.66; (333.15 K) 9.48 ± 0.65; (343.15 K) 9.24 ± 0.63.

Take `CC(C)OC(C)C` [diisopropyl ether] + CCCCCCCCn1cc[n+](COCCC)c1C.O=S(=O)([N-]S(=O)(=O)C(F)(F)F)C(F)(F)F: the activity coefficient runs as follows: (323.15 K) 1.95 ± 0.13; (333.15 K) 1.86 ± 0.13; (343.15 K) 1.82 ± 0.12.

Regarding `CCCCCC` [hexane] + CN(C)c1cc[n+](COCCCOC[n+]2ccc(N(C)C)cc2)cc1.O=S(=O)([N-]S(=O)(=O)C(F)(F)F)C(F)(F)F.O=S(=O)([N-]S(=O)(=O)C(F)(F)F)C(F)(F)F, the activity coefficient worked out at 7.4 ± 0.5 (323.15 K), 5.82 ± 0.4 (333.15 K) and 4.7 ± 0.32 (343.15 K).

Take `CC1CCCCC1` [methylcyclohexane] + CCCOC[n+]1ccn(C)c1.O=S(=O)([N-]S(=O)(=O)C(F)(F)F)C(F)(F)F: the activity coefficient stood at 13 ± 0.89 (323.15 K), 12.9 ± 0.88 (333.15 K) and 13 ± 0.89 (343.15 K).

Consider `C#CCCCC` [1-hexyne] + CN(C)c1cc[n+](COCCCOC[n+]2ccc(N(C)C)cc2)cc1.O=S(=O)([N-]S(=O)(=O)C(F)(F)F)C(F)(F)F.O=S(=O)([N-]S(=O)(=O)C(F)(F)F)C(F)(F)F, for which the activity coefficient by setting is: (323.15 K) 3 ± 0.2; (333.15 K) 2.96 ± 0.2; (343.15 K) 2.92 ± 0.2.

Consider `c1ccsc1` [thiophene] + CCCCCCCCn1cc[n+](COCCC)c1C.O=S(=O)([N-]S(=O)(=O)C(F)(F)F)C(F)(F)F, for which the activity coefficient is 0.57 ± 0.04 (323.15 K), 0.52 ± 0.04 (333.15 K) and 0.56 ± 0.04 (343.15 K).

In the case of `CC(C)CO` [2-methyl-1-propanol] + CCCOC[n+]1ccn(Cc2ccccc2)c1.F[B-](F)(F)F, the activity coefficient (323.15 K) came to 2.86 ± 0.19, the activity coefficient (333.15 K) is 2.53 ± 0.17 and the activity coefficient (343.15 K) stood at 2.34 ± 0.16.

As to `CC#N` [acetonitrile] + CN(C)c1cc[n+](COCCCOC[n+]2ccc(N(C)C)cc2)cc1.O=S(=O)([N-]S(=O)(=O)C(F)(F)F)C(F)(F)F.O=S(=O)([N-]S(=O)(=O)C(F)(F)F)C(F)(F)F, the activity coefficient amounted to 0.37 ± 0.03 (323.15 K), 0.37 ± 0.03 (333.15 K) and 0.37 ± 0.03 (343.15 K).

On to `c1ccsc1` [thiophene] + CCCCCCCCn1cc[n+](COCCCOC[n+]2ccn(CCCCCCCC)c2C)c1C.O=S(=O)([N-]S(=O)(=O)C(F)(F)F)C(F)(F)F.O=S(=O)([N-]S(=O)(=O)C(F)(F)F)C(F)(F)F, for which the activity coefficient came out at 0.38 ± 0.03 (323.15 K), 0.37 ± 0.03 (333.15 K) and 0.38 ± 0.03 (343.15 K).

For `C=CCCCC` [hex-1-ene] + Cn1cc[n+](COCCCOC[n+]2ccn(C)c2)c1.O=S(=O)([N-]S(=O)(=O)C(F)(F)F)C(F)(F)F.O=S(=O)([N-]S(=O)(=O)C(F)(F)F)C(F)(F)F, the activity coefficient reads like this: (323.15 K) 15.1 ± 1; (333.15 K) 10.1 ± 0.69.
